Data published in a compilation of properties of binary mixtures (doi:10.1021/acs.jced.9b00738).

Assay: xn = mol fraction of the nth substance listed
Settings: 100 kPa

CCOC(=O)OCC + CCCC[N+]1(C)CCCC1.O=S(=O)([N-]S(=O)(=O)C(F)(F)F)C(F)(F)F
x2 = 0
Settings | viscosity [mPa·s]
293.15 K | 0.8
298.15 K | 0.75
303.15 K | 0.7
308.15 K | 0.65
313.15 K | 0.61
318.15 K | 0.58

CCCC[N+]1(C)CCCC1.O=S(=O)([N-]S(=O)(=O)C(F)(F)F)C(F)(F)F + CCOC(=O)OCC
Settings | electrical conductivity [S/m] | viscosity [mPa·s]
293.15 K, x1 = 0.1506 | 0.443 | 2.76
293.15 K, x1 = 0.25 | 0.584 | –
293.15 K, x1 = 0.2973 | 0.613 | 6.62
293.15 K, x1 = 0.349 | 0.608 | 8.69
293.15 K, x1 = 0.4 | 0.531 | 11.2
293.15 K, x1 = 0.6002 | 0.34 | 29.01
293.15 K, x1 = 0.6985 | 0.288 | 41
293.15 K, x1 = 0.8006 | 0.254 | 55.9
293.15 K, x1 = 1 | 0.216 | 98
298.15 K, x1 = 0.1001 | 0.372 | 1.65
298.15 K, x1 = 0.1506 | 0.494 | 2.49
298.15 K, x1 = 0.2 | 0.586 | 3.49
298.15 K, x1 = 0.25 | 0.646 | –
298.15 K, x1 = 0.2973 | 0.701 | 5.86
298.15 K, x1 = 0.349 | 0.693 | 7.74
298.15 K, x1 = 0.4 | 0.622 | 9.95
298.15 K, x1 = 0.4998 | 0.514 | 15.45
298.15 K, x1 = 0.6002 | 0.425 | 24.22
298.15 K, x1 = 0.6985 | 0.365 | 34.1
298.15 K, x1 = 0.8006 | 0.329 | 46
298.15 K, x1 = 0.8934 | 0.3 | 58.6
298.15 K, x1 = 1 | 0.275 | 76.6
303.15 K, x1 = 0.1001 | 0.401 | 1.5
303.15 K, x1 = 0.1506 | 0.543 | 2.26
303.15 K, x1 = 0.2973 | 0.785 | 5.21
303.15 K, x1 = 0.349 | 0.782 | 7
303.15 K, x1 = 0.4 | 0.714 | 8.78
303.15 K, x1 = 0.4998 | 0.601 | 13.25
303.15 K, x1 = 0.6002 | 0.509 | 20.02
303.15 K, x1 = 0.6985 | 0.438 | 28.53
303.15 K, x1 = 0.8006 | 0.395 | 38
303.15 K, x1 = 0.8934 | 0.371 | 46.9
303.15 K, x1 = 1 | 0.34 | 61.6
308.15 K, x1 = 0.1001 | 0.436 | 1.35
308.15 K, x1 = 0.1506 | 0.591 | 2.03
308.15 K, x1 = 0.2 | 0.703 | 2.85
308.15 K, x1 = 0.25 | 0.8 | –
308.15 K, x1 = 0.2973 | 0.876 | 4.79
308.15 K, x1 = 0.349 | 0.867 | 6.3
308.15 K, x1 = 0.4 | 0.803 | 7.89
308.15 K, x1 = 0.6002 | 0.612 | 17
308.15 K, x1 = 0.6985 | 0.534 | 23.82
308.15 K, x1 = 0.8006 | 0.485 | 32.02
308.15 K, x1 = 1 | 0.411 | 50.8
313.15 K, x1 = 0.1506 | 0.637 | 1.83
313.15 K, x1 = 0.2 | 0.766 | 2.56
313.15 K, x1 = 0.2973 | 0.968 | 4.33
313.15 K, x1 = 0.349 | 0.957 | 5.76
313.15 K, x1 = 0.4 | 0.908 | 7.11
313.15 K, x1 = 0.4998 | 0.804 | 10.46
313.15 K, x1 = 0.6002 | 0.73 | 14.69
313.15 K, x1 = 0.6985 | 0.649 | 19.99
313.15 K, x1 = 0.8006 | 0.588 | 26
313.15 K, x1 = 0.8934 | 0.535 | 31.7
313.15 K, x1 = 1 | 0.491 | 41.6
318.15 K, x1 = 0.1001 | 0.501 | 1.09
318.15 K, x1 = 0.1506 | 0.684 | 1.64
318.15 K, x1 = 0.2 | 0.83 | 2.28
318.15 K, x1 = 0.25 | 1 | –
318.15 K, x1 = 0.2973 | 1.05 | 3.9
318.15 K, x1 = 0.349 | 1.05 | 5.21
318.15 K, x1 = 0.4 | 1 | 6.45
318.15 K, x1 = 0.4998 | 0.903 | 9.01
318.15 K, x1 = 0.6002 | 0.831 | 13
318.15 K, x1 = 0.6985 | 0.746 | 17.01
318.15 K, x1 = 0.8006 | 0.673 | 22
318.15 K, x1 = 0.8934 | 0.62 | 26.75
318.15 K, x1 = 1 | 0.581 | 34.6
323.15 K, x1 = 0.1506 | 0.742 | 1.46
323.15 K, x1 = 0.2 | 0.901 | 2.05
323.15 K, x1 = 0.25 | 1.1 | –
323.15 K, x1 = 0.2973 | 1.14 | 3.52
323.15 K, x1 = 0.349 | 1.15 | 4.63
323.15 K, x1 = 0.4 | 1.1 | 5.79
323.15 K, x1 = 0.4998 | 1.02 | 8.05
323.15 K, x1 = 0.6002 | 0.935 | 11.01
323.15 K, x1 = 0.6985 | 0.865 | 14.4
323.15 K, x1 = 0.8934 | 0.745 | 22.8
323.15 K, x1 = 1 | 0.681 | 29.46
